Results from US20240182465A1 (GENFLEET THERAPEUTICS (SHANGHAI) INC., priority 2021, published 2024).
Where a name gives a salt, the structure may show the parent alone.

Assays:
HPK1 [1] = molecular target: T1, HPK1 (Homo sapiens, UniProt Q92918); assay: HPK1 kinase activity assay (ADP-Glo); details: HPK1 Kinase activity IC50 (nM), 1 nM HPK1, 10 μM ATP, 0.1 μg/μL MBP
T1 sequence (Q92918 1-346 limits assumed): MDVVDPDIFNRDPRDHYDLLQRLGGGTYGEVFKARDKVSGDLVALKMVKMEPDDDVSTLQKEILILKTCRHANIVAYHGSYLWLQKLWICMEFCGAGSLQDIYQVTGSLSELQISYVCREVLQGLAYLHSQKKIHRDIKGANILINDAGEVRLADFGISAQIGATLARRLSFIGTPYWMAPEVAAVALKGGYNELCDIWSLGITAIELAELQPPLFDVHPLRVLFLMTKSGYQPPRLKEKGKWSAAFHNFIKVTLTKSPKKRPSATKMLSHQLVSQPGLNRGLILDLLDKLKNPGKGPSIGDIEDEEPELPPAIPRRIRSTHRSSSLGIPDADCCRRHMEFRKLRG

HPK1 [2] = molecular target: HPK1 (Homo sapiens, UniProt Q92918); assay: SLP76 phosphorylation assay (intracellular HPK1 inhibitory activity, p-SLP76 Ser376 sandwich ELISA); details: p-SLP76 IC50(nM), Jurkat, Clone E6-1 cells; 1 h compound pre-incubation, anti-CD3 beads stimulation 20 min; SLP76 phosphorylation at S376
Target sequence in this assay (Q92918 whole entry): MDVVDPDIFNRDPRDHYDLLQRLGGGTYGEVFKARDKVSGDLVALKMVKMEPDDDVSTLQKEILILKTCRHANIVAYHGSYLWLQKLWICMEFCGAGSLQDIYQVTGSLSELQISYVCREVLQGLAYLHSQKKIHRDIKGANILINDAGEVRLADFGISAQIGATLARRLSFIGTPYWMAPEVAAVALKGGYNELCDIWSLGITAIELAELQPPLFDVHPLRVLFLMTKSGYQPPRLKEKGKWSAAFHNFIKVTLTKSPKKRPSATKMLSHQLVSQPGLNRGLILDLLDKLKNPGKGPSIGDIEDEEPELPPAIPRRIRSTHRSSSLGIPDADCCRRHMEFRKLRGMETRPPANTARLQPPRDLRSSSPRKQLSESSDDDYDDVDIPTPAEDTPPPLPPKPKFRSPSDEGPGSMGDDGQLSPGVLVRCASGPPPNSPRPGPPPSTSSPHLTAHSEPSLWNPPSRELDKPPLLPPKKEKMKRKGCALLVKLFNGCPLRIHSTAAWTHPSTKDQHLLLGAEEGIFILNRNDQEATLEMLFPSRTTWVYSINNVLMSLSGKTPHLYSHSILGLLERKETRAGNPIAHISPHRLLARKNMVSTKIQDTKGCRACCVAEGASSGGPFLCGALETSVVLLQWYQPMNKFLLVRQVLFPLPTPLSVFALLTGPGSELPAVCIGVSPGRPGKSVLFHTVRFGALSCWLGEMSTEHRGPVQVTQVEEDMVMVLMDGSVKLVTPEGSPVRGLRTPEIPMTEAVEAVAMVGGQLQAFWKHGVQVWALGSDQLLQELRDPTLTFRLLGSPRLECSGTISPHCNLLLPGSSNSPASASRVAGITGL
Method: Intracellular HPK1 inhibitory activity was tested by the detection of SLP76 phosphorylation at S376.
Preparation of 1000× drug stock plate: a 1000× compound stock plate was prepared. […] The compound stock plate was sealed with a sealing film and stored in a −20° C. refrigerator for later use.
Preparation of Beads wash buffer: 0.1 mL FBS and 0.4 mL 0.5 M EDTA (with a final concentration of 2 mM) were added to 100 mL PBS and stored in a 4° C. refrigerator for later use.
100× Protease Inhibitor Cocktail in 1/20 total volume was added and stored on wet ice for later use. The buffer was ready to use.
Cell inoculation and dosing: the 1000× drug stock plate was taken and melted at room temperature in the dark. […] Jurkat cells in the logarithmic growth phase were selected and collected. […] The cells were inoculated into a 96-well plate (the volume was 90 μL per well), and a blank control well (without cells inoculation, and in which 110 μL of medium was added) was set. 10 μL of a drug-containing culture medium (10×) was transferred from the 10× drug intermediate plate into the 96-well cell plate (with a final concentration of 0.1% DMSO), and set a DMSO control group (in which 0.1% DMSO was added to the treated cells), a stimulated control group (in which 10 μL of culture medium was added to treat cells) and an unstimulated group (in which 10 μL of culture medium was added to treat cells). The wells were duplicated, gently patted, mixed, and then placed into a 5% CO2 incubator at 37° C. for 1 h.
Anti-CD3 beads stimulation: Dynabeads anti-human CD3 was taken, shaken, and mixed for 60 s. The required volume of beads was pipetted, and an equal volume or at least 1 mL of washing solution was added to wash once. Fresh complete medium was then added to resuspend and adjust the density of the beads to 4×10^7/mL, and the beads were placed on ice for later use. At the end of drug pre-incubation, the cell culture plate was taken out. 10 μL Dynabeads anti-human CD3 was added to each well to treat the cells, and 10 μL the culture medium was added to the unstimulated group. The cell culture plate was shaken to mix well at 2500 rpm for 10 s, and then placed into a 5% CO2 incubator at 37° C. and continued to culture for 20 min.
Detection of p-SLP76 protein level. PathScan Phospho-SLP-76 (Ser376) Sandwich ELISA Kit was applied to detect p-SLP76 protein level. At the end of the Anti-CD3 beads stimulation, the cell culture plate was removed from the incubator. […] After lysis, the cell culture plate was centrifuged at 4° C., 400×g for 5 min. 25 μL of sample and 75 μL of sample diluent were added to each well, and the plate was placed in a 5% CO2 incubator at 37° C. for 2 h. The subsequent detection steps were carried out following the kit instructions, and the absorbance (OD value) of each well was read at 450 nm by a microplate reader.

`CO[C@@H]1CCN(C(=O)N2CCc3cc(-c4cnc5[nH]cc(C)c5c4)cc([C@@H]4CCCN4)c3C2)C1` [Compound Z357-2, ((R)-3-methoxypyrrolidin-1-yl)(6-(3-methyl-1H-pyrrolo[2,3-b]pyridin-5-yl)-8-((S)-pyrrolidin-2-yl)-3,4-dihydroisoquinolin-2(1H)-yl)methanone] was tested, and the IC50 (HPK1 [1]) was 0.26 nM and the IC50 (HPK1 [2]) was 80.7 nM.

For `Cc1c[nH]c2ncc(-c3cc4c(c(CN5CC6CCC(C5)N6C)c3)COCC4)cc12` [Compound Z113, 3-methyl-5-(8-((8-methyl-3,8-diazabicyclo[3.2.1]octan-3-yl)methyl)isochroman-6-yl)-1H-pyrrolo[2,3-b]pyridine], the IC50 (HPK1 [1]) was 62.2 nM and the IC50 (HPK1 [2]) was 10000 nM.

`COCC(=O)N1Cc2cc(-c3cnc4[nH]cc(C)c4c3)cc([C@@H]3CCCN3)c2C1` [Compound Z261, (S)-2-methoxy-1-(6-(3-methyl-1H-pyrrolo[2,3-b]pyridin-5-yl)-4-(pyrrolidin-2-yl)isoindolin-2-yl)ethan-1-one hydrochloride] gave an IC50 (HPK1 [1]) of 2.63 nM and an IC50 (HPK1 [2]) of 842 nM.

With `COC(=O)N1CCc2cc(-c3cnc4[nH]cc(C)c4c3)cc([C@@H]3CCCN3)c2C1` [Compound Z34-1] the IC50 (HPK1 [1]) was 0.55 nM and the IC50 (HPK1 [2]) was 265 nM.

`CC(C)c1c[nH]c2ncc(-c3cc([C@@H]4CCCN4)c4cnccc4c3)cc12` (single isomer, unassigned) [Compound Z95-2] was tested, and the IC50 (HPK1 [1]) was 1.45 nM and the IC50 (HPK1 [2]) was 623 nM.

Work on `Cc1c[nH]c2ncc(-c3cc4c(c([C@@H]5CCCN5)c3)CCN(C(=O)[C@H]3CCOC3)C4)cc12` [Compound Z294, (7-(3-methyl-1H-pyrrolo[2,3-b]pyridin-5-yl)-5-((S)-pyrrolidin-2-yl)-3,4-dihydroisoquinolin-2(1H)-yl) ((S)-tetrahydrofuran-3-yl)methanone] yielded an IC50 (HPK1 [1]) of 0.52 nM and an IC50 (HPK1 [2]) of 95.3 nM.

Compound `CC(C#N)c1c[nH]c2ncc(-c3cc4c(c([C@@H]5CCCN5)c3)COCC4)cc12` (stereo partly drawn) [Compound Z104, 2-(5-(8-((S)-pyrrolidin-2-yl)isochroman-6-yl)-1H-pyrrolo[2,3-b]pyridin-3-yl)propanenitrile] has an IC50 (HPK1 [1]) of 0.29 nM and an IC50 (HPK1 [2]) of 77 nM.

For `Cc1c[nH]c2ncc(-c3cc4c(c([C@@H]5CCCN5)c3)CN(C(=O)Nc3cccnc3)C4)cc12` [Compound Z387, (S)-6-(3-methyl-1H-pyrrolo[2,3-b]pyridin-5-yl)-N-(pyridin-3-yl)-4-(pyrrolidin-2-yl)isoindoline-2-carboxamide], the IC50 (HPK1 [1]) was 3.8 nM and the IC50 (HPK1 [2]) was 2400 nM.

`Cc1c[nH]c2ncc(-c3cc4c(c(C5CC(=O)N5)c3)COCC4)cc12` (centres unmarked) [Compound Z231, 4-(6-(3-methyl-1H-pyrrolo[2,3-b]pyridin-5-yl)isochroman-8-yl)azetidin-2-one] gave an IC50 (HPK1 [1]) of 35.3 nM and an IC50 (HPK1 [2]) of over 10000 nM.

Compound `Cc1c[nH]c2ncc(-c3cc4c(c([C@@H]5CCCN5)c3)CN(CC3CCOCC3)CC4)cc12` [Compound Z442, (S)-6-(3-methyl-1H-pyrrolo[2,3-b]pyridin-5-yl)-8-(pyrrolidin-2-yl)-2-((tetrahydro-2H-pyran-4-yl)methyl)-1,2,3,4-tetrahydroisoquinoline] has an IC50 (HPK1 [1]) of 1.5 nM and an IC50 (HPK1 [2]) of 412 nM.

Work on `Cc1c[nH]c2ncc(-c3cc4c(c([C@@H]5CCCN5)c3)CN(C(=O)CC3CCOCC3)CC4)cc12` [Compound Z218, (S)-1-(6-(3-methyl-1H-pyrrolo[2,3-b]pyridin-5-yl)-8-(pyrrolidin-2-yl)-3,4-dihydroisoquinolin-2(1H)-yl)-2-(tetrahydro-2H-pyran-4-yl)ethanone] yielded an IC50 (HPK1 [1]) of 0.81 nM and an IC50 (HPK1 [2]) of 367 nM.

In the case of `Cc1nn(C2CC2)cc1C(=O)N1CCc2cc(-c3cnc4[nH]cc(C)c4c3)cc([C@@H]3CCCN3)c2C1` [Compound Z341], the IC50 (HPK1 [1]) is reported as 1.09 nM and the IC50 (HPK1 [2]) is reported as 492 nM.

Work on `COCC(=O)N1CCc2cc(-c3cnc4[nH]cc(C(C)C)c4c3)cc([C@@H]3COCCN3)c2C1` [Compound Z424-1] yielded an IC50 (HPK1 [1]) of 0.31 nM and an IC50 (HPK1 [2]) of 129 nM.

With `Cc1c[nH]c2ncc(-c3cc4c(c([C@@H]5CCCN5)c3)CN(CC(F)(F)F)CC4)cc12` [Compound Z131, (S)-6-(3-methyl-1H-pyrrolo[2,3-b]pyridin-5-yl)-8-(pyrrolidin-2-yl)-2-(2,2,2-trifluoroethyl)-1,2,3,4-tetrahydroisoquinoline] the IC50 (HPK1 [1]) was 7.54 nM and the IC50 (HPK1 [2]) was 664 nM.

`Cc1c[nH]c2ncc(-c3cc4c(c([C@@H]5CCCN5)c3)CN(C(=O)NC3CC3)CC4)cc12` [Compound Z250, (S)—N-cyclopropyl-6-(3-methyl-1H-pyrrolo[2,3-b]pyridin-5-yl)-8-(pyrrolidin-2-yl)-3,4-dihydroisoquinoline-2(1H)-carboxamide] gave an IC50 (HPK1 [1]) of 0.42 nM and an IC50 (HPK1 [2]) of 193 nM.

For `Cc1c[nH]c2ncc(-c3cc4c(c([C@@H]5CCCN5)c3)CN(C(=O)N3CCOCC3)CC4)cc12` [Compound Z356, (S)-(6-(3-methyl-1H-pyrrolo[2,3-b]pyridin-5-yl)-8-(pyrrolidin-2-yl)-3,4-dihydroisoquinolin-2(1H)-yl) (morpholino)methanone], the IC50 (HPK1 [1]) was 0.28 nM and the IC50 (HPK1 [2]) was 62.1 nM.

`Cc1c[nH]c2ncc(-c3cc4c(c([C@@H]5CCCN5)c3)CCOC4)cc12` [Compound Z75-1] showed an IC50 (HPK1 [1]) of 1.7 nM and an IC50 (HPK1 [2]) of 475 nM.

In the case of `Nc1ncc(-c2cc3c(c([C@@H]4CCCN4)c2)COCC3)cc1-c1cn[nH]c1` (single isomer, unassigned) [Compound Z93-2], the IC50 (HPK1 [1]) is reported as 0.71 nM and the IC50 (HPK1 [2]) is reported as 235 nM.

`C[C@H](C#N)c1c[nH]c2ncc(-c3cc4c(c([C@@H]5CCCN5)c3)COCC4)cc12` (single isomer, unassigned) [Compound Z104-1] was tested, and the IC50 (HPK1 [1]) was 0.62 nM and the IC50 (HPK1 [2]) was 126 nM.

Compound `CN1CCc2cc(-c3cnc(N)c(-c4cnn(C)c4)c3)cc(C3CCCN3)c2C1` (centres unmarked) [Compound Z4, 3-(1-methyl-1H-pyrazol-4-yl)-5-(2-methyl-8-(pyrrolidin-2-yl)-1,2,3,4-tetrahydroisoquinolin-6-yl)pyridin-2-amine] has an IC50 (HPK1 [1]) of 48.7 nM and an IC50 (HPK1 [2]) of 3570 nM.

`Cc1cc(C(=O)N2CCc3cc(-c4cnc5[nH]cc(C)c5c4)cc([C@@H]4CCCN4)c3C2)n(C)n1` [Compound Z355, (S)-(1,3-dimethyl-1H-pyrazol-5-yl)(6-(3-methyl-1H-pyrrolo[2,3-b]pyridin-5-yl)-8-(pyrrolidin-2-yl)-3,4-dihydroisoquinolin-2(1H)-yl)methanone] gave an IC50 (HPK1 [1]) of 0.45 nM and an IC50 (HPK1 [2]) of 196 nM.

`CCN(CC)Cc1cc(-c2cnc3[nH]cc(C)c3c2)cc2c1COCC2` [Compound Z110, N-ethyl-N-((6-(3-methyl-1H-pyrrolo[2,3-b]pyridin-5-yl)isochroman-8-yl)methyl)ethanamine] showed an IC50 (HPK1 [1]) of 26.9 nM and an IC50 (HPK1 [2]) of 2840 nM.

Compound `Cc1c[nH]c2ncc(-c3cc4c(c([C@@H]5CCCN5)c3)COC4)cc12` [Compound Z151-1, (S)-3-methyl-5-(7-(pyrrolidin-2-yl)-1,3-dihydroisobenzofuran-5-yl)-1H-pyrrolo[2,3-b]pyridine] has an IC50 (HPK1 [1]) of 2.52 nM and an IC50 (HPK1 [2]) of 739 nM.

With `Cc1c[nH]c2ncc(-c3cc4c(c(CNC(C)C)c3)COCC4)cc12` [Compound Z111, N-((6-(3-methyl-1H-pyrrolo[2,3-b]pyridin-5-yl)isochroman-8-yl)methyl)propan-2-amine] the IC50 (HPK1 [1]) was 5.81 nM and the IC50 (HPK1 [2]) was 815 nM.

`Cc1c[nH]c2ncc(-c3cc4c(c([C@@H]5CCCN5)c3)CN(C(=O)N3CCOCC3(C)C)CC4)cc12` [Compound Z361] was tested, and the IC50 (HPK1 [1]) was 0.36 nM and the IC50 (HPK1 [2]) was 102 nM.
